# Read-outs that look alike come from different tables or passages of the source.
# Columns and labels:
# [1] = test system: phosphorylated AKT Ser473 (pAKT S473), mTORC2 activity, PC3 cells; assay: mTOR target engagement assay, immunofluorescent cell-based, pAKT S473 readout (mTORC2 activity); conditions: Homo sapiens
# Method in brief: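 After blocking, cells were stained overnight at 4 °C with anti-pAKT S473 antibody, then a fluorescent secondary; inhibition was read as reduced fluorescence intensity.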
# [2] = test system: phosphorylated 4E-BP1 Thr37/46 (p4E-BP1 Thr37/46), mTORC1 activity, PC3 cells; assay: mTOR target engagement assay, immunofluorescent cell-based, p4E-BP1 Thr37/46 readout (mTORC1 activity); conditions: Homo sapiens, read-out: p4E-BP1 Thr37/46 IC50
# Method in brief: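 PTEN-mutant PC3 prostate cells were treated with serially diluted compound in 5% FBS F12 medium (0.25% DMSO) for ninety minutes at 37° C, glyoxal-fixed, then immunostained overnight at 4° C for p4E-BP1 Thr37/46 with an Alexa Fluor 488 secondary. IC50 came from four-parameter fits of fluorescence, DMSO-only wells defining 100%.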
# [3] = PC-3, PC3 cells, compound treatment ninety minutes at 37° C.
SMILES,"IC50 [1, 3]","IC50 [2, 3]","IC50 ([1]; PC-3, PC3 cells)","IC50 ([2]; PC-3, PC3 cells)",further results
"CC(=O)c1c([C@@H]2C[C@H]3CC[C@@H](C2)N3C(=O)c2cc(N)n[nH]2)nc2c(-c3ccc(-n4cc(C)cn4)nc3)cnn2c1N [Compound 1.1.132, 1-(7-amino-5-((1R,3s,5S)-8-(3-amino-1H-pyrazole-5-carbonyl)-8-azabicyclo[3.2.1]octan-3-yl)-3-(6-(4-methyl-1H-pyrazol-1-yl)pyridin-3-yl)pyrazolo[1,5-a]pyrimidin-6-yl)ethanone]",1 to 100 nM,1 to 100 nM,–,–,–
"CC(=O)c1c([C@@H]2C[C@H]3CC[C@@H](C2)N3C(N)=O)nc2c(-c3ccc(-c4ccc(F)cc4F)nc3)cnn2c1N [Compound 1.1.169, (1R,3s,5S)-3-(6-acetyl-7-amino-3-(6-(2,4-difluorophenyl)pyridin-3-yl)pyrazolo[1,5-a]pyrimidin-5-yl)-8-azabicyclo[3.2.1]octane-8-carboxamide]",1 to 100 nM,1 to 100 nM,–,–,–
"CS(=O)(=O)c1c([C@@H]2C[C@H]3CC[C@@H](C2)N3C(=O)c2nnc[nH]2)nc2c(-c3ccc(-c4cccc(F)c4F)nc3)cnn2c1N [Compound 3.47, ((1R,3s,5S)-3-(7-amino-3-(6-(2,3-difluorophenyl)pyridin-3-yl)-6-(methylsulfonyl)pyazolo[1,5-a]pyrimidin-5-yl)-8-azabicyclo[3.2.1]octan-8-yl)(4H-1,2,4-triazol-3-yl)methanone]",–,–,–,–,"IC50 ([1]; PC-3, Table 3-1, PC3 cells): 1 to 100 nM; IC50 ([2]; PC-3, Table 3-1, PC3 cells): 1 to 100 nM"
"CC(=O)c1c([C@@H]2C[C@H]3CC[C@@H](C2)N3C(=O)CO)nc2c(-c3ccc(-c4ncn(C)n4)nc3)cnn2c1N [Compound 1.1.89, 1-((1R,3s,5S)-3-(6-acetyl-7-amino-3-(6-(1-methyl-1H-1,2,4-triazol-3-yl)pyridin-3-yl)pyrazolo[1,5-a]pyrimidin-5-yl)-8-azabicyclo[3.2.1]octan-8-yl)-2-hydroxyethanone]",100 to 1000 nM,100 to 1000 nM,–,–,–
"CC(=O)c1c([C@@H]2C[C@H]3CC[C@@H](C2)N3C(=O)c2cc(N)n[nH]2)nc2c(-c3ccc(C(N)(C(F)(F)F)C(F)(F)F)nc3)cnn2c1N [Compound 7.84, 1-(7-amino-3-(6-(2-amino-1,1,1,3,3,3-hexafluoropropan-2-yl)pyridin-3-yl)-5-((1R,3s,5S)-8-(3-amino-1H-pyrazole-5-carbonyl)-8-azabicyclo[3.2.1]octan-3-yl)pyrazolo[1,5-a]pyrimidin-6-yl)ethanone]",–,–,1000 to 10000 nM,1000 to 10000 nM,–
"N#Cc1c([C@@H]2C[C@H]3CC[C@@H](C2)N3C(=O)c2nnc[nH]2)nc2c(-c3ccc(-c4nccs4)nc3)cnn2c1N [Compound 5.3, 5-((1R,3s,5S)-8-(4H-1,2,4-triazole-3-carbonyl)-8-azabicyclo[3.2.1]octan-3-yl)-7-amino-3-(6-(thiazol-2-yl)pyridin-3-yl)pyrazolo[1,5-a]pyrimidine-6-carbonitrile]",1 to 100 nM,1 to 100 nM,–,–,–
"CS(=O)(=O)c1c([C@@H]2C[C@H]3CC[C@@H](C2)N3C(=O)c2nnc[nH]2)nc2c(-c3ccc(-n4cccn4)nc3)cnn2c1N [Compound 3.150, ((1R,3s,5S)-3-(3-(6-(1H-pyrazol-1-yl)pyridin-3-yl)-7-amino-6-(methylsulfonyl)pyrazolo[1,5-a]pyrimidin-5-yl)-8-azabicyclo[3.2.1]octan-8-yl)(4H-1,2,4-triazol-3-yl)methanone]",–,–,–,–,"IC50 ([1]; PC-3, Table 3-1, PC3 cells): 1 to 100 nM; IC50 ([2]; PC-3, Table 3-1, PC3 cells): 1 to 100 nM"
"CC(=O)c1c([C@@H]2C[C@H]3CC[C@@H](C2)N3C(=O)c2ccc[nH]2)nc2c(-c3ccc(-c4ccccc4)nc3)cnn2c1N [Compound 1.1.43, 1-(5-((1R,3s,5S)-8-(1H-pyrrole-2-carbonyl)-8-azabicyclo[3.2.1]octan-3-yl)-7-amino-3-(6-phenylpyridin-3-yl)pyrazolo[1,5-a]pyrimidin-6-yl)ethanone]",100 to 1000 nM,100 to 1000 nM,–,–,–
"CCc1c([C@@H]2C[C@H]3CC[C@@H](C2)N3C(=O)c2nnc[nH]2)nc2c(-c3ccc(-c4ccccc4)nc3)cnn2c1N [Compound 5.8, ((1R,3s,5S)-3-(7-amino-6-ethyl-3-(6-phenylpyridin-3-yl)pyrazolo[1,5-a]pyrimidin-5-yl)-8-azabicyclo[3.2.1]octan-8-yl)(4H-1,2,4-triazol-3-yl)methanone]",1 to 100 nM,1 to 100 nM,–,–,–
"CS(=O)(=O)c1c([C@@H]2C[C@H]3CC[C@@H](C2)N3C(=O)c2nnc[nH]2)nc2c(-c3ccc(CO)c(F)c3)cnn2c1N [Compound 8.42, ((1R,3s,5S)-3-(7-amino-3-(3-fluoro-4-(hydroxymethyl)phenyl)-6-(methylsulfonyl)pyrazolo[1,5-a]pyrimidin-5-yl)-8-azabicyclo[3.2.1]octan-8-yl)(4H-1,2,4-triazol-3-yl)methanone]",–,–,1 to 100 nM,1 to 100 nM,–
"CC(=O)c1c([C@@H]2C[C@H]3CC[C@@H](C2)N3C(=O)c2nnc[nH]2)nc2c(-c3ccc(-c4cc[nH]n4)nc3)cnn2c1N [Compound 1.1.74, 1-(3-(6-(1H-pyrazol-3-yl)pyridin-3-yl)-5-((1R,3s,5S)-8-(4H-1,2,4-triazole-3-carbonyl)-8-azabicyclo[3.2.1]octan-3-yl)-7-aminopyrazolo[1,5-a]pyrimidin-6-yl)ethanone]",1 to 100 nM,1 to 100 nM,–,–,–
"CC(=O)c1c([C@@H]2C[C@H]3CC[C@@H](C2)N3C(=O)c2nnc[nH]2)nc2c(-c3ccc(-c4ccc(F)cc4F)nc3)cnn2c1N [Compound 1.1.148, 1-(5-((1R,3s,5S)-8-(4H-1,2,4-triazole-3-carbonyl)-8-azabicyclo[3.2.1]octan-3-yl)-7-amino-3-(6-(2,4-difluorophenyl)pyridin-3-yl)pyrazolo[1,5-a]pyrimidin-6-yl)ethanone]",1 to 100 nM,1 to 100 nM,–,–,–
"CS(=O)(=O)c1c([C@@H]2C[C@H]3CC[C@@H](C2)N3C(=O)CO)nc2c(-c3ccc(C(O)C(F)(F)F)nc3)cnn2c1N (stereo partly drawn) [Compound 7.70, 1-((1R,3s,5S)-3-(7-amino-6-(methylsulfonyl)-3-(6-(2,2,2-trifluoro-1-hydroxyethyl)pyridin-3-yl)pyrazolo[1,5-a]pyrimidin-5-yl)-8-azabicyclo[3.2.1]octan-8-yl)-2-hydroxyethanone]",–,–,1000 to 10000 nM,1000 to 10000 nM,–
"CC(=O)c1c([C@@H]2C[C@H]3CC[C@@H](C2)N3C(=O)c2nnc[nH]2)nc2c(-c3ccc([C@@H](C)O)nc3)cnn2c1N [Compound 7.33, 1-(5-((1R,3s,5S)-8-(4H-1,2,4-triazole-3-carbonyl)-8-azabicyclo[3.2.1]octan-3-yl)-7-amino-3-(6-((R)-1-hydroxyethyl)pyridin-3-yl)pyrazolo[1,5-a]pyrimidin-6-yl)ethanone]",–,–,–,–,"IC50 ([1]; PC-3, Table 7-4, PC3 cells): 100 to 1000 nM; IC50 ([2]; PC-3, Table 7-4, PC3 cells): 100 to 1000 nM"
"Nc1c(C2CC2)c([C@H]2CC3CC[C@H](C2)N3C(=O)c2nnc[nH]2)nc2c(-c3cnc4c(c3)CCC4O)cnn12 (stereo partly drawn) [Compound 7.61, ((1R,3s,5S)-3-(7-amino-6-cyclopropyl-3-(7-hydroxy-6,7-dihydro-5H-cyclopenta[b]pyridin-3-yl)pyrazolo[1,5-a]pyrimidin-5-yl)-8-azabicyclo[3.2.1]octan-8-yl)(4H-1,2,4-triazol-3-yl)methanone]",–,–,1 to 100 nM,1 to 100 nM,–
"CC(=O)c1c([C@@H]2C[C@H]3CC[C@@H](C2)N3C(=O)c2nnc[nH]2)nc2c(-c3ccc(-c4cccc(F)c4F)nc3)cnn2c1N [Compound 1.1.61, 1-(5-((1R,3s,5S)-8-(4H-1,2,4-triazole-3-carbonyl)-8-azabicyclo[3.2.l]octan-3-yl)-7-amino-3-(6-(2,3-difluorophenyl)pyridin-3-yl)pyrazolo[1,5-a]pyrimidin-6-yl)ethanone]",1 to 100 nM,1 to 100 nM,–,–,–
"CS(=O)(=O)c1c([C@@H]2C[C@H]3CC[C@@H](C2)N3C(=O)CO)nc2c(-c3ccc(CO)c(F)c3)cnn2c1N [Compound 8.43, 1-((1R,3s,5S)-3-(7-amino-3-(3-fluoro-4-(hydroxymethyl)phenyl)-6-(methylsulfonyl)pyrazolo[1,5-a]pyrimidin-5-yl)-8-azabicyclo[3.2.1]octan-8-yl)-2-hydroxyethanone]",–,–,100 to 1000 nM,100 to 1000 nM,–
"CS(=O)(=O)c1c([C@@H]2C[C@H]3CC[C@@H](C2)N3C(=O)CO)nc2c(-c3cn[nH]c3)cnn2c1N [Compound 3.114, 1-((1R,3s,5S)-3-(7-amino-6-(methylsulfonyl)-3-(1H-pyrazol-4-yl)pyrazolo[1,5-a]pyrimidin-5-yl)-8-azabicyclo[3.2.1]octan-8-yl)-1-hydroxyethanone]",–,–,–,–,"IC50 ([1]; PC-3, Table 3-1, PC3 cells): > 10000 nM; IC50 ([2]; PC-3, Table 3-1, PC3 cells): > 10000 nM"
"COCCOc1nnc(C(=O)N2C3CCC2CC(c2nc4c(-c5ccc(-c6ccccc6)nc5)cnn4c(N)c2C2CC2)C3)[nH]1 [Compound 8.100, ((1R,3s,5S)-3-(7-amino-6-cyclopropyl-3-(6-phenylpyridin-3-yl)pyrazolo[1,5-a]pyrimidin-5-yl)-8-azabicyclo[3.2.1]octan-8-yl)(5-(2-methoxyethoxy)-4H-1,2,4-triazol-3-yl)methanone]",–,–,100 to 1000 nM,100 to 1000 nM,–
"CS(=O)(=O)c1c([C@@H]2C[C@H]3CC[C@@H](C2)N3C(=O)CO)nc2c(-c3ccc(-n4cccn4)nc3)cnn2c1N [Compound 3.153, 1-((1R,3s,5S)-3-(3-(6-(1H-pyrazol-1-yl)pyridin-3-yl)-7-amino-6-(methylsulfonyl)pyrazolo[1,5-a]pyrimidin-5-yl)-8-azabicyclo[3.2.1]octan-8-yl)-2-hydroxyethanone]",–,–,–,–,"IC50 ([1]; PC-3, Table 3-1, PC3 cells): 100 to 1000 nM; IC50 ([2]; PC-3, Table 3-1, PC3 cells): 1000 to 10000 nM"
